Data reported in patent US7425563B2, “4-(Substituted aryl)-5-hydroxyisoquinolinone derivative” (Kyorin Pharmaceutical Co., Ltd., priority 2002, dated 2008).

target: T1, PARP (Homo sapiens, UniProt P09874); assay: Inhibitory experiment against PARP activity; format: biochemical; details: PARP (Trevigen), [14C]NAD, activated DNA, 25° C., 10 minutes; concentration decreasing enzyme activity to 50%
T1 construct: purchased Trevigen 4667-050-01
Description: After mixing well, the contents were warmed to 25° C. in a water bath. After 10 minutes, the reaction was stopped by adding 1 mL of ice-cold 20% trichloroacetic acid and the test tube was left on ice. The precipitates were collected on a glass fiber filter by suction filtration and washed 5 times with 5% trichloroacetic acid. The radioactivity on the filter was measured with liquid scintillation counter.

T1 sequence (P09874 whole entry): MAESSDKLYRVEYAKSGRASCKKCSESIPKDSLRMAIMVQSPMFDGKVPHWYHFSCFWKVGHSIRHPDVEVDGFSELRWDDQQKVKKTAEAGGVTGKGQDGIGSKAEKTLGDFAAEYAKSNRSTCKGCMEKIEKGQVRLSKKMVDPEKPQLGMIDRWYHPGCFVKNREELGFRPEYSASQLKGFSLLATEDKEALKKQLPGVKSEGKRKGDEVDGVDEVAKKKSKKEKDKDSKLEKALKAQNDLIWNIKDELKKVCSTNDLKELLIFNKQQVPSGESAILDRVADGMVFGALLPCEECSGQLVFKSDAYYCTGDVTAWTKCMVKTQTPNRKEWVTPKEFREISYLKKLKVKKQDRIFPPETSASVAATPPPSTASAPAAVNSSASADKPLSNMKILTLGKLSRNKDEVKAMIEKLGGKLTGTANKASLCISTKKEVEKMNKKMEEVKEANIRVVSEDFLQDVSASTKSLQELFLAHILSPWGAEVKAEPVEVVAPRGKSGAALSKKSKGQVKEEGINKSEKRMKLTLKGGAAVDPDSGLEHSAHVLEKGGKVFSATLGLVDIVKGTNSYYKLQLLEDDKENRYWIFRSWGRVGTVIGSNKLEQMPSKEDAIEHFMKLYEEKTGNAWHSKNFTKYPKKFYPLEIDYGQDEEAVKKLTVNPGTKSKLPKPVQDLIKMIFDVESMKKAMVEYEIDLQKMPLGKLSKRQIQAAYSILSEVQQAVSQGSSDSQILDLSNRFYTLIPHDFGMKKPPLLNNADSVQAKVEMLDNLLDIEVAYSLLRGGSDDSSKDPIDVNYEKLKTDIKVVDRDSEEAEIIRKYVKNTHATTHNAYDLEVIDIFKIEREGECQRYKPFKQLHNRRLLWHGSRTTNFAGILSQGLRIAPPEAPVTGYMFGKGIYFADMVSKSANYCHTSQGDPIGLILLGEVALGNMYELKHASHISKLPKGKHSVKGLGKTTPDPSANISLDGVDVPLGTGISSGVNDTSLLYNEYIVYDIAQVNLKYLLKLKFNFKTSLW

IC50 [µM]	SMILES
0.054	CN(Cc1ccccc1)Cc1ccc(-c2c[nH]c(=O)c3cccc(O)c23)cc1 [Example 12]
0.041	CN(CCc1ccccc1)Cc1ccc(-c2c[nH]c(=O)c3cccc(O)c23)cc1 [Example 19]
0.047	CN(CCCc1ccccc1)Cc1ccc(-c2c[nH]c(=O)c3cccc(O)c23)cc1 [Example 21]
0.126	CN(Cc1ccc(-c2c[nH]c(=O)c3cccc(O)c23)cc1)CC1CCCCC1 [Example 23]
0.033	O=c1[nH]cc(-c2ccc(CN3CCCC3)cc2)c2c(O)cccc12 [Example 32]
0.02	O=c1[nH]cc(-c2ccc(CN3CC=C(c4ccccc4)CC3)cc2)c2c(O)cccc12 [Example 61, 1,2-Dihydro-5-hydroxy-1-oxo-4-[4-[(4-phenyl-1,2,3,6-tetrahydropyridine-1-yl)methyl]phenyl]isoquinoline]
